Assay results from PMC10224201, “Characterization of Non-Specific Uptake and Retention Mechanisms of [^177Lu]Lu-PSMA-617 in the Salivary Glands” (Pharmaceuticals, 2023).

Molecular target: T1, PSMA (PC3-PIP cells) (Homo sapiens, UniProt Q04609)
T1 construct: gene FOLH1; full length, on intact PSMA-positive PC3-PIP prostate cancer cells (PC3-Flu as PSMA-negative control)
Experiment: competition with […]Lu-PSMA-617 on cells, gamma counting
Assay type: cell-based
Settings: read-out: % of control binding at 9000 μM

T1 sequence (Q04609 whole entry): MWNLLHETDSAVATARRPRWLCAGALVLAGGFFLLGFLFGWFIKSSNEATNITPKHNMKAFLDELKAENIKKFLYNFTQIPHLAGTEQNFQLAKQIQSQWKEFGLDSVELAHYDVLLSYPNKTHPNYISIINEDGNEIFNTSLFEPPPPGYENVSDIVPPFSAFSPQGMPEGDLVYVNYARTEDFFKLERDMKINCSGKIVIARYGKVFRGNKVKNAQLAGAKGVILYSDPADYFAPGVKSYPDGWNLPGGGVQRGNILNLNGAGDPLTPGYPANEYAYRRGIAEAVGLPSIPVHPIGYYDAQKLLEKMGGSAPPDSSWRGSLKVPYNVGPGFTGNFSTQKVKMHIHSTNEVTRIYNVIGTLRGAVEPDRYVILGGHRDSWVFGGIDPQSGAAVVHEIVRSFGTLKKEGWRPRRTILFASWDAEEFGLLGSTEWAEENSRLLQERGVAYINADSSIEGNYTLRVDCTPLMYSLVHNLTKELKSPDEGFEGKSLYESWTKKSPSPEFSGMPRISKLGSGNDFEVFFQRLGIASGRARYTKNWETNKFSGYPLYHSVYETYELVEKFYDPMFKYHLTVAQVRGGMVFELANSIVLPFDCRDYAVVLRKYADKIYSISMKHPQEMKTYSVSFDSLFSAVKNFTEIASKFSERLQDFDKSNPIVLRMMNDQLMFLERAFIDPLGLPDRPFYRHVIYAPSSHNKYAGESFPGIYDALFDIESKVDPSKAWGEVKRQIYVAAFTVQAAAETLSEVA

Question: N[C@@H](CCC(=O)O)C(=O)O [monosodium glutamate] was tested. Which remaining activity at 9000 µM did it give?
Answer: 24.9 ± 3.64%
